Test results taken from patent publication US9340521B2, “Method for dual inhibition of SGLT1 and SGLT2 using diphenylmethane derivatives” (GREEN CROSS CORPORATION, priority 2013, dated 2016).

Experiments:
Human SGLT2 (hSGLT2) = Human SGLT2 (hSGLT2) (Homo sapiens (Human), UniProt P31639); assay: Inhibitory effects on human SGLT2 activities (14C-AMG uptake, sodium-dependent glucose transport assay); format: cell-based; conditions: hSGLT2-expressing CHO cells, 37° C. for 2 h, single determinations
Procedure, shortened: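 CHO cells stably expressing hSGLT2 were preincubated 10 min at 37 °C in choline (Na+-free) buffer, then exposed 2 h at 37 °C to compound in Na+ uptake buffer with 8 μM 14C-AMG and 1 mM unlabeled AMG. Radioactivity was scintillation counted; IC50 came from nonlinear regression.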

Human SGLT1 (hSGLT1) = Human SGLT1 (hSGLT1) (Homo sapiens (Human), UniProt P13866); assay: Inhibitory effects on human SGLT1 activities (14C-AMG uptake, sodium-dependent glucose transport assay); format: cell-based; conditions: 37° C. for 2 h, single determinations
Human SGLT1 (hSGLT1), sequence (P13866 whole entry): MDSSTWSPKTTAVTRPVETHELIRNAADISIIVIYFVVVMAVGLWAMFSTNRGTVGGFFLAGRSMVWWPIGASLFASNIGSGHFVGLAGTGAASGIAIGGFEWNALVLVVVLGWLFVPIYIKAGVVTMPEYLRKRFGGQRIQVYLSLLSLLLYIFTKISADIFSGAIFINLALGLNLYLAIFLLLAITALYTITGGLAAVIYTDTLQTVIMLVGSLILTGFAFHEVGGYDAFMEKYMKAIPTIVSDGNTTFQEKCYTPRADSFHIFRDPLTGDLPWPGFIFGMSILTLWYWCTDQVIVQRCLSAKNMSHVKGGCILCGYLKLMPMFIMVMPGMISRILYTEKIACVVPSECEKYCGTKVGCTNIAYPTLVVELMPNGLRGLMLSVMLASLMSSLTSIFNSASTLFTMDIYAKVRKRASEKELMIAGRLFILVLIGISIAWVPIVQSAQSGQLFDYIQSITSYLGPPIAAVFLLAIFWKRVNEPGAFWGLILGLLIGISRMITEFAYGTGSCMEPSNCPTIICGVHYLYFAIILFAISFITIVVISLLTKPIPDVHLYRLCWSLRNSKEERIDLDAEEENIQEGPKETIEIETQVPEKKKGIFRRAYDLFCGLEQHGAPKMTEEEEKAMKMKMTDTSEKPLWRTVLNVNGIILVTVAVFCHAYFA

Human SGLT2 (hSGLT2), sequence (P31639 whole entry): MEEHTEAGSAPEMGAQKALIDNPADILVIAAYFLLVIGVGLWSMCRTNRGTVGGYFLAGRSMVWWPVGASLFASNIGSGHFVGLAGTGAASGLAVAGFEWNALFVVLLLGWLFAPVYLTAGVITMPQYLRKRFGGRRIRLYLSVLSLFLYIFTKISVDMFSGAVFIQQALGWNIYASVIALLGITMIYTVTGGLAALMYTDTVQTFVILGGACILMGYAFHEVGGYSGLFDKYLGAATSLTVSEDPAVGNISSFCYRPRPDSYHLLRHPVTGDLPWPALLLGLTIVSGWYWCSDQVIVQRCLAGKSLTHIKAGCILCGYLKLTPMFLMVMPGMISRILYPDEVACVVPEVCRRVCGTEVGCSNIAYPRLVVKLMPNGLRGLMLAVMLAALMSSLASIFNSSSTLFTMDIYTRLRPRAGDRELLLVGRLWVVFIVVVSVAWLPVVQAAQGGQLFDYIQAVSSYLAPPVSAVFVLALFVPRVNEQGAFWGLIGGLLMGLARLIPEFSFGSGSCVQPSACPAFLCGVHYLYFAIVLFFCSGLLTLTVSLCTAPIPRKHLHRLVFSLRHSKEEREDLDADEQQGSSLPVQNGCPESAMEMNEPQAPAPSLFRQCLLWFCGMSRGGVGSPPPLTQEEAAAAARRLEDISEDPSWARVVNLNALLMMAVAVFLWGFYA

- IC50 (Human SGLT2 (hSGLT2)): 0.0016 µM
- IC50 (Human SGLT1 (hSGLT1)): 0.155 µM
SMILES: CCOc1ccc(Cc2cc([C@@H]3O[C@H](CO)[C@@H](O)[C@H](O)[C@H]3O)c3c(c2C)OCO3)cc1 [Compound E065, (2S,3R,4R,5S,6R)-2-(6-(4-Ethoxybenzyl)-7-methylbenzo[d][1,3]dioxol-4-yl)-6-(hydroxymethyl)tetrahydro-2H-pyran-3,4,5-triol]
